Test results from PubChem BioAssay (NCI).
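Five compound concentrations were applied to cells in 96-well plates for 48 hours; endpoints were derived by simple linear interpolation of the resulting dose-response curve. At the GI50, growth is halved. Definition used: TGI = concentration required for complete inhibition of growth.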

Assays:
Assay in all cases: NCI tumour cell line growth inhibition, 48 h
IGROV1 ovarian = system: IGROV1 ovarian
PC-3 prostate = system: PC-3 prostate
BT-549 breast = system: BT-549 breast
HOP-62 NSCLC = system: HOP-62 NSCLC
KM12 colon = system: KM12 colon
CAKI-1 renal = system: CAKI-1 renal
HCT-116 colon = system: HCT-116 colon
TK-10 renal = system: TK-10 renal
HCC-2998 colon = system: HCC-2998 colon
ACHN renal = system: ACHN renal
COLO 205 colon = system: COLO 205 colon
MDA-MB-231 breast = system: MDA-MB-231 breast
SF-268 CNS = system: SF-268 CNS
HCT-15 colon = system: HCT-15 colon
NCI-H226 lung = system: NCI-H226 lung
SK-MEL-5 melanoma = system: SK-MEL-5 melanoma
HT29 colon = system: HT29 colon
786-0 renal = system: 786-0 renal
SF-539 CNS = system: SF-539 CNS
UO-31 renal = system: UO-31 renal
HOP-92 NSCLC = system: HOP-92 NSCLC
U251 CNS = system: U251 CNS
NCI-H23 lung = system: NCI-H23 lung
OVCAR-5 ovarian = system: OVCAR-5 ovarian
SF-295 CNS = system: SF-295 CNS
SW-620 colon = system: SW-620 colon
CCRF-CEM leukemia = system: CCRF-CEM leukemia
NCI-H460 lung = system: NCI-H460 lung
SK-MEL-2 melanoma = system: SK-MEL-2 melanoma
HL-60(TB) leukemia = system: HL-60(TB) leukemia
K-562 leukemia = system: K-562 leukemia
OVCAR-8 ovarian = system: OVCAR-8 ovarian
M14 melanoma = system: M14 melanoma
LOX IMVI melanoma = system: LOX IMVI melanoma
UACC-257 melanoma = system: UACC-257 melanoma
RXF 393 renal = system: RXF 393 renal
SN12C renal = system: SN12C renal
A549 NSCLC = system: A549 NSCLC
SK-OV-3 ovarian = system: SK-OV-3 ovarian
MCF7 breast = system: MCF7 breast
T-47D breast = system: T-47D breast
A498 renal = system: A498 renal
MDA-MB-435 = system: MDA-MB-435
NCI-H522 lung = system: NCI-H522 lung
MALME-3M melanoma = system: MALME-3M melanoma
SR leukemia = system: SR leukemia
SNB-75 CNS = system: SNB-75 CNS
MOLT-4 leukemia = system: MOLT-4 leukemia
SNB-19 CNS = system: SNB-19 CNS
UACC-62 melanoma = system: UACC-62 melanoma
RPMI-8226 leukemia = system: RPMI-8226 leukemia
DU-145 prostate = system: DU-145 prostate
OVCAR-3 ovarian = system: OVCAR-3 ovarian
EKVX NSCLC = system: EKVX NSCLC
OVCAR-4 ovarian = system: OVCAR-4 ovarian
MDA-MB-468 breast = system: MDA-MB-468 breast
HS 578T breast = system: HS 578T breast
SK-MEL-28 melanoma = system: SK-MEL-28 melanoma

For `O=C(/C=C/c1ccc(Br)cc1)c1nc2ccccc2n1Cc1ccc(Br)cc1`, the GI50 (IGROV1 ovarian) was over 100 µM, the TGI (IGROV1 ovarian) was over 100 µM and the GI50 (PC-3 prostate) was 58.6 µM. It also gave a TGI (PC-3 prostate) of over 100 µM, a GI50 (BT-549 breast) of 96 µM and a TGI (BT-549 breast) of over 100 µM. It also gave a GI50 (HOP-62 NSCLC) of over 100 µM, a TGI (HOP-62 NSCLC) of over 100 µM and a GI50 (KM12 colon) of 80.5 µM. The TGI (KM12 colon) was over 100 µM, the GI50 (CAKI-1 renal) was 53 µM and the TGI (CAKI-1 renal) was over 100 µM. The GI50 (HCT-116 colon) was 56.6 µM, the TGI (HCT-116 colon) was over 100 µM and the GI50 (TK-10 renal) was over 100 µM. For the same molecule, the TGI (TK-10 renal) was over 100 µM, the GI50 (HCC-2998 colon) was over 100 µM and the TGI (HCC-2998 colon) was over 100 µM. The GI50 (ACHN renal) was over 100 µM, the TGI (ACHN renal) was over 100 µM and the GI50 (COLO 205 colon) was over 100 µM. The TGI (COLO 205 colon) was over 100 µM, the GI50 (MDA-MB-231 breast) was 99.1 µM and the TGI (MDA-MB-231 breast) was over 100 µM. For the same molecule, the GI50 (SF-268 CNS) was over 100 µM, the TGI (SF-268 CNS) was over 100 µM and the GI50 (HCT-15 colon) was 40.5 µM. The TGI (HCT-15 colon) was over 100 µM, the GI50 (NCI-H226 lung) was over 100 µM and the TGI (NCI-H226 lung) was over 100 µM. The GI50 (SK-MEL-5 melanoma) was over 100 µM, the TGI (SK-MEL-5 melanoma) was over 100 µM and the GI50 (HT29 colon) was 68.7 µM. For the same molecule, the TGI (HT29 colon) was over 100 µM, the GI50 (786-0 renal) was over 100 µM and the TGI (786-0 renal) was over 100 µM. It also gave a GI50 (SF-539 CNS) of over 100 µM, a TGI (SF-539 CNS) of over 100 µM and a GI50 (UO-31 renal) of 45.9 µM. The TGI (UO-31 renal) was over 100 µM, the GI50 (HOP-92 NSCLC) was 58.6 µM and the TGI (HOP-92 NSCLC) was over 100 µM. For the same molecule, the GI50 (U251 CNS) was 42.6 µM, the TGI (U251 CNS) was over 100 µM and the GI50 (NCI-H23 lung) was over 100 µM. The TGI (NCI-H23 lung) was over 100 µM, the GI50 (OVCAR-5 ovarian) was over 100 µM and the TGI (OVCAR-5 ovarian) was over 100 µM. The GI50 (SF-295 CNS) was over 100 µM, the TGI (SF-295 CNS) was over 100 µM and the GI50 (SW-620 colon) was 30 µM. For the same molecule, the TGI (SW-620 colon) was over 100 µM, the GI50 (CCRF-CEM leukemia) was 18.2 µM and the TGI (CCRF-CEM leukemia) was over 100 µM. It also gave a GI50 (NCI-H460 lung) of 59.3 µM, a TGI (NCI-H460 lung) of over 100 µM and a GI50 (SK-MEL-2 melanoma) of over 100 µM. It also gave a TGI (SK-MEL-2 melanoma) of over 100 µM, a GI50 (HL-60(TB) leukemia) of 24.1 µM and a TGI (HL-60(TB) leukemia) of over 100 µM. The GI50 (K-562 leukemia) was 39.5 µM, the TGI (K-562 leukemia) was over 100 µM and the GI50 (OVCAR-8 ovarian) was 97.7 µM. For the same molecule, the TGI (OVCAR-8 ovarian) was over 100 µM, the GI50 (M14 melanoma) was over 100 µM and the TGI (M14 melanoma) was over 100 µM. It also gave a GI50 (LOX IMVI melanoma) of 30.9 µM, a TGI (LOX IMVI melanoma) of over 100 µM and a GI50 (UACC-257 melanoma) of over 100 µM. It also gave a TGI (UACC-257 melanoma) of over 100 µM, a GI50 (RXF 393 renal) of 86.9 µM and a TGI (RXF 393 renal) of over 100 µM. It also gave a GI50 (SN12C renal) of over 100 µM, a TGI (SN12C renal) of over 100 µM and a GI50 (A549 NSCLC) of over 100 µM. It also gave a TGI (A549 NSCLC) of over 100 µM, a GI50 (SK-OV-3 ovarian) of over 100 µM and a TGI (SK-OV-3 ovarian) of over 100 µM. The GI50 (MCF7 breast) was 24.1 µM, the TGI (MCF7 breast) was over 100 µM and the GI50 (T-47D breast) was 24.7 µM. It also gave a TGI (T-47D breast) of over 100 µM, a GI50 (A498 renal) of over 100 µM and a TGI (A498 renal) of over 100 µM. For the same molecule, the GI50 (MDA-MB-435) was 35.6 µM, the TGI (MDA-MB-435) was over 100 µM and the GI50 (NCI-H522 lung) was over 100 µM. It also gave a TGI (NCI-H522 lung) of over 100 µM, a GI50 (MALME-3M melanoma) of over 100 µM and a TGI (MALME-3M melanoma) of over 100 µM. It also gave a GI50 (SR leukemia) of 28 µM, a TGI (SR leukemia) of over 100 µM and a GI50 (SNB-75 CNS) of over 100 µM. It also gave a TGI (SNB-75 CNS) of over 100 µM, a GI50 (MOLT-4 leukemia) of 17 µM and a TGI (MOLT-4 leukemia) of over 100 µM. The GI50 (SNB-19 CNS) was over 100 µM, the TGI (SNB-19 CNS) was over 100 µM and the GI50 (UACC-62 melanoma) was over 100 µM. It also gave a TGI (UACC-62 melanoma) of over 100 µM, a GI50 (RPMI-8226 leukemia) of 25.2 µM and a TGI (RPMI-8226 leukemia) of over 100 µM. The GI50 (DU-145 prostate) was over 100 µM, the TGI (DU-145 prostate) was over 100 µM and the GI50 (OVCAR-3 ovarian) was 35 µM. For the same molecule, the TGI (OVCAR-3 ovarian) was over 100 µM, the GI50 (EKVX NSCLC) was over 100 µM and the TGI (EKVX NSCLC) was over 100 µM. For the same molecule, the GI50 (OVCAR-4 ovarian) was over 100 µM, the TGI (OVCAR-4 ovarian) was over 100 µM and the GI50 (MDA-MB-468 breast) was 35.9 µM. For the same molecule, the TGI (MDA-MB-468 breast) was over 100 µM, the GI50 (HS 578T breast) was over 100 µM and the TGI (HS 578T breast) was over 100 µM. It also gave a GI50 (SK-MEL-28 melanoma) of over 100 µM and a TGI (SK-MEL-28 melanoma) of over 100 µM.
